The values that follow come from publication PMC5914168 (ChemMedChem, 2017).

Where “and” joins values, the source holds several entries; their conditions need not be identical. Equal values may be shown once.

Data set [1] addresses T1, N-terminal Nano Luciferase/GAK fusion (NL-GAK) in HEK293 cells (Homo sapiens, UniProt O14976).
T1 sequence (O14976 1-1311): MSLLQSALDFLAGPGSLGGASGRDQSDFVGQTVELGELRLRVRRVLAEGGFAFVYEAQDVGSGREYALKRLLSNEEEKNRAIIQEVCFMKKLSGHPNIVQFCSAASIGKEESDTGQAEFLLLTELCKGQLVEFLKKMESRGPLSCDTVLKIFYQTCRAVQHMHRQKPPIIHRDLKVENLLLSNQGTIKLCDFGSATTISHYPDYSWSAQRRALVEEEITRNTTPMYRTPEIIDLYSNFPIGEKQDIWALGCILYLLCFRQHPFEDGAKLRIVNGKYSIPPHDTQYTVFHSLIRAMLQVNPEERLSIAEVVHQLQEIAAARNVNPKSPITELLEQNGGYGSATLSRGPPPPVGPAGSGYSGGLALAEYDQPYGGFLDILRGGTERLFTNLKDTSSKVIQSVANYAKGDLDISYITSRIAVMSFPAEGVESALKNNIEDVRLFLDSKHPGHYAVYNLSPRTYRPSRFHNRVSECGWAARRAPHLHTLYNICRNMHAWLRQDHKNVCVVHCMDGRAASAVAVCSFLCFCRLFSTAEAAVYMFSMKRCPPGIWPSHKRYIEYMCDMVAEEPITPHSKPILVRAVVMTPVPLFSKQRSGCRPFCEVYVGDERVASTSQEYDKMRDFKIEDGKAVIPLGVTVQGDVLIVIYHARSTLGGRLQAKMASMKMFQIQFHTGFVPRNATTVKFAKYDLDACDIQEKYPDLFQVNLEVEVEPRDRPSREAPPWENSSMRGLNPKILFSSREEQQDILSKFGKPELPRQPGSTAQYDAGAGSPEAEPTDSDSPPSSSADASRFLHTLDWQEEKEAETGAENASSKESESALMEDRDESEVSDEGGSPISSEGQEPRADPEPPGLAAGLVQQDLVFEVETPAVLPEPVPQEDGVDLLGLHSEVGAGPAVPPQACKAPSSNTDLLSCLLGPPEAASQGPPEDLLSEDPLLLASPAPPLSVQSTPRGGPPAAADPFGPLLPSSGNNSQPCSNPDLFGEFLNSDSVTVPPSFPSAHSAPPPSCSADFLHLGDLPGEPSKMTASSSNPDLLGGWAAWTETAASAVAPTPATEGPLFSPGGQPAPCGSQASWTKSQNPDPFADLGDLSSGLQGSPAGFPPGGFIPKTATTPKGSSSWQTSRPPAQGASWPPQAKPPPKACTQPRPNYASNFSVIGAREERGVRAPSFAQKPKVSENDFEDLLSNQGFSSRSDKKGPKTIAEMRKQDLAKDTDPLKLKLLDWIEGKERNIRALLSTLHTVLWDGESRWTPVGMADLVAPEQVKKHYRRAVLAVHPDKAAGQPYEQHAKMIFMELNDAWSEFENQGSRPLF
Put plainly: GAK nanoBRET cellular target engagement assay. As to conditions: for IC50: NanoBRET GAK IC50, HEK293 cells, 8-point dose response, average of 2 experiments.

Data set [2] deals with T2, GAK kinase domain (12-347) (Homo sapiens, UniProt O14976).
T2 sequence (O14976 12-347): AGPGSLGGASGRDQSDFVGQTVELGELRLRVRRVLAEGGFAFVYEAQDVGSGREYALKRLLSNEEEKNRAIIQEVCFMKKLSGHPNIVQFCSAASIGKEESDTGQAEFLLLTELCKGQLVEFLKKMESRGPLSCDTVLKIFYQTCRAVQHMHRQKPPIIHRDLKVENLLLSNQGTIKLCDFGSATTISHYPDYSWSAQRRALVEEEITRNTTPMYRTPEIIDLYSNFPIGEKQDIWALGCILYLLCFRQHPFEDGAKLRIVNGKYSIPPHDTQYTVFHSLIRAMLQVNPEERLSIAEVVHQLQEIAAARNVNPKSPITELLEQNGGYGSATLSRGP
The data set is described as follows: TR-FRET ligand binding displacement assay, GAK. As to conditions: for NAK selectivity (ratio of GAK Ki and Ki of nearest NAK family member): selectivity against the nearest NAK family member. Background: TR-FRET usually uses a lanthanide donor and a delayed reading to cut background.

The target in data set [3] is AAK1 kinase domain (31-396) (Homo sapiens, UniProt Q2M2I8). The data set is described as follows: TR-FRET ligand binding displacement assay, AAK1.
Data set [4] concerns the target BMP2K kinase domain (38-345) (Homo sapiens, UniProt Q9NSY1). The data set is described as follows: TR-FRET ligand binding displacement assay, BMP2K.
For data set [5], the target named is STK16 kinase domain (13-305) (Homo sapiens, UniProt O75716). Put plainly: TR-FRET ligand binding displacement assay, STK16.
The target of data set [6] is T3, kinases in SUM159 cell lysate (>240 protein kinases profiled) (Homo sapiens, UniProt O14976).
T3 sequence (O14976 1-1311): T1 sequence (O14976 1-1311)
The data set is described as follows: Multiplexed inhibitor beads / mass spectrometry. The format is binding. As to conditions: SUM159 lysate, highest concentration (10 nM), 30 minutes on ice.

Data set [7] concerns kinases in SUM159 cell lysate (>240 protein kinases profiled). The data set is described as follows: Multiplexed inhibitor beads / mass spectrometry. The format is binding. Particulars: SUM159 cell lysate.
Data set [8] relates to GAK. Particulars: cited from earlier work.

Sequence of STK16 kinase domain (13-305) (O75716 13-305): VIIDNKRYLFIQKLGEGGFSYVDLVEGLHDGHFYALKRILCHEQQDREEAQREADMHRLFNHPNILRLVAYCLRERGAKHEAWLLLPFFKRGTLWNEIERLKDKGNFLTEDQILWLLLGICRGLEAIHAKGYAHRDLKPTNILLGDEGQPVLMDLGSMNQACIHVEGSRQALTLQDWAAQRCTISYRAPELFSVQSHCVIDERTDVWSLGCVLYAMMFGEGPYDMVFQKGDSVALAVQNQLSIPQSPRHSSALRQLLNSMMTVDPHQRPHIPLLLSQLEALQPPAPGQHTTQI
Sequence of AAK1 kinase domain (31-396) (Q2M2I8 31-396): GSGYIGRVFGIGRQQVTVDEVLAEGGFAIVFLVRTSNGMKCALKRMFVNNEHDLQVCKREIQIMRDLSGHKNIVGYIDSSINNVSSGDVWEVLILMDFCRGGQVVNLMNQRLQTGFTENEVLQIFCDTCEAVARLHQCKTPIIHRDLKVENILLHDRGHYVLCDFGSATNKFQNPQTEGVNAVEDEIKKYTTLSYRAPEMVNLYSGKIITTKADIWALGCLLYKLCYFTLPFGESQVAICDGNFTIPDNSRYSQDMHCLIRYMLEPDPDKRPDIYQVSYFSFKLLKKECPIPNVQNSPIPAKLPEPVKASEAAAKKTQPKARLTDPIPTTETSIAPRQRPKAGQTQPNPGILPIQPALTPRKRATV
Sequence of BMP2K kinase domain (38-345) (Q9NSY1 38-345): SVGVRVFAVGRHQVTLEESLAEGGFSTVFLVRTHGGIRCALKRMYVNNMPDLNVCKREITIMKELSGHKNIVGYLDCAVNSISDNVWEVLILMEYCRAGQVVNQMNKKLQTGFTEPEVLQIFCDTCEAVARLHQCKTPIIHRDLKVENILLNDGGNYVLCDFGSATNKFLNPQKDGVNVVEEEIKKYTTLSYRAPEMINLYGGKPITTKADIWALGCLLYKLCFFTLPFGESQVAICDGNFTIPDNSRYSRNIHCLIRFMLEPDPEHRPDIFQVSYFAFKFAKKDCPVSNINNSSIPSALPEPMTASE

For orientation: IC50 means the concentration needed to halve the response being measured. Low values mean greater potency in that assay, high ones weaker potency in that assay. One may read the Ki as a dissociation constant, usually derived from enzyme kinetics or from competition with a known ligand. High values mean lower affinity, low ones higher affinity. In turn, `COc1cc(Nc2ccnc3ccccc23)cc(OC)c1OC` [Compound 41, N-(3,4,5-Trimethoxyphenyl)quinolin-4-amine] registered a half-inhibitory concentration (IC50) in data set [1] of 780 nM. In data set [1] (nanoBRET, relative to 1), the “fold decrease in cellular potency” value amounted to 4 fold. In addition, the “fold drop in GAK potency” value in data set [2] (relative to 1) is listed as 10 fold. The “NAK selectivity (ratio of GAK Ki and Ki of nearest NAK family member)” value in data set [2] is on record as above 2500. The Ki in data set [3], in data set [4] and in data set [5] was above 100000 nM each time.

With `COc1cc(Nc2ccnc3cc(F)cc(F)c23)cc(OC)c1OC` [Compound 44, 5,7-Difluoro-N-(3,4,5-trimethoxyphenyl)quinolin-4-amine], the IC50 in data set [1] was found to be 4400 nM. Moreover, the inhibition constant Ki is 140 nM in data set [2], above 100000 nM in data set [3], above 100000 nM in data set [4] and above 100000 nM in data set [5]. Further, the “NAK selectivity (ratio of GAK Ki and Ki of nearest NAK family member)” value in data set [2] is above 720.

`COc1cc(Nc2ccnc3ccc(C(C)(C)C)cc23)cc(OC)c1OC` [Compound 45, 6-(tert-Butyl)-N-(3,4,5-trimethoxyphenyl)quinolin-4-amine] gave an IC50 in data set [1] of 330 nM. Further, the figures for the Ki in data set [2], in data set [3] and in data set [4] were 8.1 nM, above 100000 nM and above 100000 nM, respectively.

Regarding `COc1cc(Nc2ccnc3ccc(C#N)cc23)cc(OC)c1OC` [Compound 46, 4-((3,4,5-Trimethoxyphenyl)amino)quinoline-6-carbonitrile], in data set [1], the IC50 was ~350 nM and 350 nM.

For `COc1cc2nccc(Nc3cc(OC)c(OC)c(OC)c3)c2cc1OC` [Compound 49, 6,7-Dimethoxy-N-(3,4,5-trimethoxyphenyl)quinolin-4-amine], in data set [6], the “GAK depletion in MIB/MS” value is around 10 fold. In addition, in data set [7], the “kinases bound in MIB/MS (kinome selectivity)” value is “binding to only GAK and RIPK2”. For the same molecule, in data set [1] (nanoBRET, over the single methoxy substitutions 48 & 50), the “fold cellular potency increase” value is listed as 14–17 fold. In data set [5], the Ki was above 100000 nM.

As to `COc1cc(Nc2c(C#N)cnc3cc(OCCCN4CCN(C)CC4)c(OC)cc23)c(Cl)cc1Cl` [bosutinib], the “off target activity on GAK, potency” value in data set [8] is “low nanomolar range”.

For `Cc1nc(Nc2ncc(C(=O)Nc3c(C)cccc3Cl)s2)cc(N2CCN(CCO)CC2)n1` [dasatinib], the “off target activity on GAK, potency” value in data set [8] is recorded as “low nanomolar range”.

In the case of `C#Cc1cccc(Nc2ncnc3cc(OCCOC)c(OCCOC)cc23)c1` [erlotinib], the “off target activity on GAK, potency” value in data set [8] is “low nanomolar range”.

Take `COc1cc2ncnc(Nc3ccc(F)c(Cl)c3)c2cc1OCCCN1CCOCC1` [gefitinib]: the “off target activity on GAK, potency” value in data set [8] is “low nanomolar range”.
